In US7223728B2, “Synergistic use of thiazolidinediones with glucagon-like peptide-1 and agonists thereof to treat metabolic instability associated with non-insulin dependent diabetes” (Eli Lilly and Company, priority 1999, dated 2007):

Test system: Zucker Diabetic Fatty (ZDF) rats
Assay: Seven-week co-administration study of TZD 300512 and IP^7-GLP-1 (7–37)OH in diabetic rats (heart weight, blood glucose, insulin)
Format: in vivo, rat
Excerpt: This study was designed to evaluate the effects of using a combination of sub-optimal doses of a TZD and a GLP-1 agonist on glucose metabolism and in addition, if this combination therapy would prevent occurrence of heart hypertrophy that is associated with optimal doses of TZD derivatives. Eight week old Zucker Diabetic Fatty (Genetic Models, Inc.) rats (ZDF) weighing about 350 grams were used in this study. Animals were allowed free access to water, and Purina Formulab 5008 chow. TZD 300512 was administered as 0.00006% diet admixture while IP^7-GLP-1 (7–37)OH, a GLP-1 agonist, was infused subcutaneously at a constant rate of 0.06 ug/min via implant Aztet pumps. The duration of study was seven weeks, and food consumption and body weight were monitored daily. Plasma glucose and insulin levels were measured weekly, and Glycated hemoglobin A1c was measured at the end of the study. Heart weights also were measured at the end of the study.
Table 1 summarizes final rat weight, daily food intake, plasma glucose levels, plasma insulin levels, Hbalc, and heart weight. Values were rounded off to the nearest decimal point.

[1] = ZDF rats, TZD 0.00006% diet admixture, IP^7 0.06 ug/min subcutaneous infusion, seven weeks
[2] = ZDF rats, measured at the end of the seven-week study

4-imidazopropionyl-GLP-1 (7–37)OH [IP^7]
Glucose (plasma glucose level) (ZDF rats, fed state, TZD 0.00006% diet admixture, IP^7 0.06 ug/min subcutaneous infusion, seven weeks): 367.5 ± 58.0 mg/dL
Food Int (daily food intake) [1]: 30.4 ± 1.2 g/day
Insulin (plasma insulin level) [1]: 13.0 ± 2.9 ng/mL
Weight (final rat weight) [1]: 414.7 ± 7.9 g
Hbalc (glycated hemoglobin A1c) [2]: 9.5 ± 1.0%
Heart wt [2]: 1.2 ± 0.03 g
Fed state plasma-glucose level as % of control levels (diabetic ZDF rats, 42-day treatment period): 57.5 % of control levels
Course of plasma glucose levels over the 42-day treatment period (diabetic rats, 42-day treatment): increased
